Source: DBAASP
≈ marks a conversion by molar mass, not a printed value. Where “and” joins values, the source holds several entries; their conditions need not be identical. Equal values may be shown once. Values belong to the compound of their own block, whether it stands above or below them.

Key:
Assay in all cases: ≥ marks a high value that may be exact or a test limit, other limits are often not marked, values filed in µg/mL are converted to µM
Acinetobacter baumannii = test system: Acinetobacter baumannii
[1] = test system: Escherichia coli ATCC 25922
[2] = test system: Klebsiella pneumoniae ATCC 700603
[3] = test system: Pseudomonas aeruginosa ATCC 9027
[4] = test system: Staphylococcus aureus ATCC 25923
[5] = test system: Escherichia coli DH5alpha
[6] = test system: Klebsiella pneumoniae ATCC 10031
[7] = test system: Salmonella enterica subsp. enterica serovar Typhimurium ATCC 14028
[8] = test system: Staphylococcus aureus ATCC 6538
[9] = test system: Acinetobacter baumannii ATCC 19606
[10] = test system: Pseudomonas aeruginosa ATCC 27853
[11] = test system: Enterococcus faecalis ATCC 29212
[12] = test system: Klebsiella pneumoniae ATCC 13883
[13] = test system: Escherichia coli ATCC 25726
Bacillus subtilis 168 = test system: Bacillus subtilis 168
[14] = test system: Candida albicans ATCC 90028

MIC (Acinetobacter baumannii): 3.12 µM (≈ 5.69 µg/mL) | MIC [1]: 12.5 µM (≈ 22.8 µg/mL) | MIC [2]: 25 µM (≈ 45.6 µg/mL) | MIC [3]: 3 µM (≈ 5.47 µg/mL) | MIC [4]: 12 µM (≈ 21.9 µg/mL)
Structure (SMILES): CC[C@H](C)[C@H](NC(=O)[C@H](C)N)C(=O)N[C@@H](Cc1c[nH]c2ccccc12)C(=O)N[C@@H](CCCN=C(N)N)C(=O)N[C@@H](CCCCN)C(=O)N[C@@H](C)C(=O)N[C@H](C(=O)N[C@@H](CCCN=C(N)N)C(=O)N[C@@H](CCCN=C(N)N)C(=O)N[C@@H](CC(C)C)C(=O)N[C@H](C(=O)N[C@@H](CCCCN)C(=O)N[C@@H](CC(C)C)C(=O)N[C@H](C(=O)N[C@H](C(N)=O)C(C)C)[C@@H](C)CC)C(C)C)[C@@H](C)O [AIWRKATRRLVKLIV]

MIC [5]: ≥ 46 µM | MIC [6]: ≥ 46 µM | MIC [7]: > 46 µM
Structure (SMILES): CC[C@H](C)[C@@H]1NC(=O)[C@H](CCCCN)NC(=O)[C@@H](NC(=O)[C@@H](NC(=O)[C@@H](NC(=O)[C@@H](NC(=O)[C@@H]2CCCN2C(=O)[C@H](CC(C)C)NC(=O)[C@H](Cc2ccccc2)NC(=O)[C@H](CC(N)=O)NC(=O)[C@H](C)NC(=O)[C@H](C)NC(=O)[C@H](CC(C)C)NC(=O)CNC(=O)[C@H](C)NC(=O)[C@@H](N)Cc2ccccc2)[C@@H](C)O)[C@@H](C)CC)[C@@H](C)CC)CSSC[C@@H](C(=O)O)NC(=O)[C@H](CCCCN)NC(=O)[C@H](Cc2ccc(O)cc2)NC(=O)[C@H](CO)NC1=O [FAGLAANFLPTIICKISYKC]

Structure (SMILES): CC(C)C[C@H](NC(=O)[C@H](C)NC(=O)[C@H](CC(C)C)NC(=O)[C@H](CC(C)C)NC(=O)[C@H](CCCCN)NC(=O)[C@H](CCCCN)NC(=O)[C@H](C)NC(=O)[C@H](CC(C)C)NC(=O)[C@H](CCCCN)NC(=O)[C@H](C)NC(=O)[C@H](CC(C)C)NC(=O)[C@H](CCCCN)NC(=O)[C@H](CCCCN)NC(=O)[C@H](C)NC(=O)[C@@H](N)Cc1ccccc1)C(N)=O [FAKKLAKLAKKLLAL]
MIC [3]: 30.2 µM (≈ 50 µg/mL) | MIC [8]: 3.02 µM (≈ 5 µg/mL)

Structure (SMILES): CC(C)C[C@H](NC(=O)[C@H](C)NC(=O)[C@H](Cc1ccccc1)NC(=O)[C@H](CCCCN)NC(=O)[C@H](CCCCN)NC(=O)[C@H](C)NC(=O)[C@H](CC(C)C)NC(=O)[C@H](CCCCN)NC(=O)[C@H](C)NC(=O)[C@H](CC(C)C)NC(=O)[C@H](CC(C)C)NC(=O)[C@H](CCCCN)NC(=O)[C@H](C)NC(=O)[C@@H](N)Cc1ccccc1)C(N)=O [FAKLLAKLAKKFAL]
MIC [3]: 128 µM (≈ 200 µg/mL) | MIC [8]: 32 µM (≈ 50 µg/mL)

MIC [9]: > 26.6 µM
Structure (SMILES): CC[C@H](C)[C@H](NC(=O)CNC(=O)[C@H](CCCCN)NC(=O)[C@H](CC(C)C)NC(=O)[C@@H](N)Cc1ccccc1)C(=O)N[C@H](C(=O)N[C@@H](CC(=O)O)C(=O)N[C@H](C(=O)N[C@H](C(=O)N[C@@H](CO)C(=O)N[C@@H](CC(N)=O)C(=O)N[C@@H](Cc1c[nH]c2ccccc12)C(=O)N[C@@H](CC(C)C)C(N)=O)C(C)C)[C@@H](C)O)[C@@H](C)CC [FLKGIIDTVSNWL]

MIC [5]: 18 µM (≈ 50 µg/mL) | MIC [6]: ≥ 35.9 µM | MIC [7]: 35.9 µM (≈ 99.9 µg/mL)
Structure (SMILES): CC[C@H](C)[C@@H]1NC(=O)[C@H](CCCCN)NC(=O)[C@@H](NC(=O)[C@@H](NC(=O)[C@@H](NC(=O)[C@@H](NC(=O)[C@@H]2CCCN2C(=O)[C@H](CC(C)C)NC(=O)[C@H](Cc2ccccc2)NC(=O)[C@H](CCCCN)NC(=O)[C@H](C)NC(=O)[C@H](C)NC(=O)[C@H](CC(C)C)NC(=O)[C@H](CCCCN)NC(=O)[C@H](CCCCN)NC(=O)[C@H](CC(C)C)NC(=O)[C@H](CC(C)C)NC(=O)[C@H](CCCCN)NC(=O)[C@H](CC(C)C)NC(=O)[C@@H](N)Cc2ccccc2)[C@@H](C)O)[C@@H](C)CC)[C@@H](C)CC)CSSC[C@@H](C(=O)O)NC(=O)[C@H](CCCCN)NC(=O)[C@H](Cc2ccc(O)cc2)NC(=O)[C@H](CO)NC1=O [FLKLLKKLAAKFLPTIICKISYKC]

MIC [9]: 58 µM (≈ 63.9 µg/mL) | MIC [1]: 58 µM (≈ 63.9 µg/mL) | MIC [10]: 7.25 µM (≈ 7.99 µg/mL) | MIC [4]: 58 µM (≈ 63.9 µg/mL)
Structure (SMILES): CC(C)C[C@H](NC(=O)[C@H](CC(C)C)NC(=O)[C@H](CCCCN)NC(=O)[C@H](CCCCN)NC(=O)[C@H](CC(C)C)NC(=O)[C@@H](NC(=O)[C@H](CCCCN)NC(=O)[C@H](CC(C)C)NC(=O)[C@@H](N)Cc1ccccc1)[C@@H](C)O)C(N)=O [FLKTLKKLL]

MIC [11]: 10 µM (≈ 24.1 µg/mL) | MIC [12]: 4 µM and 8 µM | MIC [7]: 5 µM and 10 µM
Structure (SMILES): CC[C@H](C)[C@H](NC(=O)CNC(=O)[C@H](CO)NC(=O)[C@H](CC(C)C)NC(=O)[C@@H](NC(=O)[C@H](CCCN=C(N)N)NC(=O)CNC(=O)[C@@H](NC(=O)[C@H](CC(C)C)NC(=O)[C@@H]1CCCN1C(=O)[C@H](CC(C)C)NC(=O)[C@@H](N)Cc1ccccc1)[C@@H](C)CC)C(C)C)C(=O)N[C@@H](CC(C)C)C(=O)NCC(=O)N[C@@H](Cc1c[nH]c2ccccc12)C(=O)N[C@@H](CCCCN)C(=O)N[C@@H](CCCN=C(N)N)C(=O)N[C@@H](CCCCN)C(=O)N[C@@H](CCCN=C(N)N)C(=O)N[C@@H](Cc1ccccc1)C(=O)NCC(N)=O [FLPLIGRVLSGILGWKRKRFG]

MIC [13]: ≥ 128 µM | MIC [4]: 64 µM (≈ 85.9 µg/mL)
Structure (SMILES): CC(C)C[C@H](NC(=O)[C@H](CC(C)C)NC(=O)CNC(=O)[C@H](CO)NC(=O)[C@H](CC(C)C)NC(=O)[C@H](CC(C)C)NC(=O)CNC(=O)[C@@H](NC(=O)[C@@H](NC(=O)[C@H](CC(C)C)NC(=O)[C@@H]1CCCN1C(=O)[C@H](CC(C)C)NC(=O)[C@@H](N)Cc1ccccc1)C(C)C)[C@@H](C)O)C(N)=O [FLPLVTGLLSGLL]

MIC [8]: 1330 µM (≈ 1410 µg/mL)
Structure (SMILES): CC(C)C[C@H](NC(=O)[C@@H]1CCCN1C(=O)CNC(=O)[C@@H]1CCCN1C(=O)[C@H](CC(C)C)NC(=O)CN)C(=O)NCC(=O)N1CCC[C@H]1C(=O)N[C@@H](C)C(=O)NCC(=O)N1CCC[C@H]1C(=O)N[C@@H](CCCCN)C(=O)O [GLPGPLGPAGPK]

MIC (Bacillus subtilis 168): ≥ 65 µM | MIC [5]: ≥ 125 µM
Structure (SMILES): CC(C)[C@H](NC(=O)[C@H](CCCCN)NC(=O)[C@H](CCCCN)NC(=O)[C@@H](NC(=O)[C@@H](NC(=O)[C@H](CCCCN)NC(=O)[C@H](CCCCN)NC(=O)[C@@H](NC(=O)[C@@H](NC(=O)[C@H](CCCCN)NC(=O)[C@H](CCCCN)NC(=O)[C@@H](NC(=O)[C@@H](NC(=O)CN)C(C)C)C(C)C)C(C)C)C(C)C)C(C)C)C(C)C)C(N)=O [GVVKKVVKKVVKKV]

MIC [14]: ≥ 80 µM | MIC [13]: 20 µM (≈ 57.4 µg/mL) | MIC [2]: 20 µM (≈ 57.4 µg/mL) | MIC [10]: 20 µM (≈ 57.4 µg/mL) | MIC [4]: 20 µM (≈ 57.4 µg/mL)
Structure (SMILES): CC[C@H](C)[C@H](N)C(=O)N[C@@H](CCCCN)C(=O)N[C@H](C(=O)N1CCC[C@H]1C(=O)N[C@@H](C)C(=O)N[C@@H](Cc1ccccc1)C(=O)N[C@H](C(=O)N[C@@H](CCCCN)C(=O)N[C@@H](CC(=O)O)C(=O)N[C@H](C(=O)N[C@@H](CC(C)C)C(=O)N[C@@H](CCCCN)C(=O)N[C@@H](CCCCN)C(=O)N[C@H](C(=O)N[C@@H](C)C(=O)N[C@@H](CCCCN)C(=O)NCC(=O)N[C@H](C(=O)N[C@H](C(=O)N[C@@H](CO)C(=O)N[C@@H](C)C(=O)N[C@H](C(=O)N[C@@H](C)C(=O)NCC(=O)N[C@@H](C)C(=O)N[C@@H](CC(C)C)C(=O)N[C@H](C(=O)N[C@@H](CCC(N)=O)C(=O)O)[C@@H](C)O)C(C)C)[C@@H](C)CC)C(C)C)C(C)C)[C@@H](C)O)C(C)C)[C@@H](C)CC [IKIPAFVKDTLKKVAKGVISAVAGALTQ]

MIC [14]: ≥ 160 µM | MIC [13]: ≥ 40 µM | MIC [4]: 80 µM (≈ 229 µg/mL)
Structure (SMILES): CC[C@H](C)[C@H](N)C(=O)N[C@@H](CCCCN)C(=O)N[C@H](C(=O)N1CCC[C@H]1C(=O)N1CCC[C@H]1C(=O)N[C@H](C(=O)N[C@H](C(=O)N[C@@H](CCCCN)C(=O)N[C@@H](CC(=O)O)C(=O)N[C@H](C(=O)N[C@@H](CC(C)C)C(=O)N[C@@H](CCCCN)C(=O)N[C@@H](CCCCN)C(=O)N[C@H](C(=O)N[C@@H](C)C(=O)N[C@@H](CCCCN)C(=O)NCC(=O)N[C@H](C(=O)N[C@@H](CC(C)C)C(=O)N[C@@H](CO)C(=O)N[C@H](C(=O)N[C@H](C(=O)N[C@@H](C)C(=O)NCC(=O)N[C@@H](C)C(=O)N[C@@H](CC(C)C)C(=O)N[C@@H](CO)C(=O)N[C@H](C(=O)O)[C@@H](C)O)[C@@H](C)CC)[C@@H](C)O)C(C)C)C(C)C)[C@@H](C)O)C(C)C)[C@@H](C)CC)[C@@H](C)CC [IKIPPIVKDTLKKVAKGVLSTIAGALST]

MIC [13]: ≥ 200 µM | MIC [4]: > 200 µM
Structure (SMILES): CC[C@H](C)[C@@H]1NC(=O)[C@H](CCSC)NC(=O)[C@@H]2CCCN2C(=O)[C@@H]2CCCN2C(=O)[C@@H](NC(=O)[C@@H](N)Cc2c[nH]c3ccccc23)CSSC[C@@H](C(=O)N[C@@H](CO)C(=O)N[C@@H](CCCN=C(N)N)C(=O)N[C@@H](Cc2ccccc2)C(N)=O)NC(=O)[C@H](CC(C)C)NC(=O)[C@@H]2CCCN2C1=O [WCPPMIPLCSRF]
